This passage reports IC50 results from ChEMBL document CHEMBL3822389, “New insights into 3-(aminomethyl)naphthoquinones: Evaluation of cytotoxicity, electrochemical behavior and search for structure-activity correlation” (Bioorg Med Chem Lett, 2016).

For orientation: pIC50 means −log10 of the IC50, conventionally taken in molar units.

Test [1] is described as follows: Cytotoxicity against human HCT8 cells after 72 hrs by MTT assay. The class given is functional, cell-based, HCT-8. On the technique in general: Tetrazolium dyes change colour on reduction, which living cells bring about.
The subject of a further test is MDA-MB-435. The test is described as follows: Cytotoxicity against human MDA-MB-435 cells after 72 hrs by MTT assay. Format: functional, cell-based.
Test [2] can be described thus: Cytotoxicity against human HL60 cells after 72 hrs by MTT assay. The class given is functional, cell-based, HL-60.
Test [3] in a line: Cytotoxicity against human SF295 cells after 72 hrs by MTT assay. Format: functional, cell-based, SF-295.

pIC50: −log10 of the molar value.

Turning to `CCCCNC(C1=C(O)C(=O)c2ccccc2C1=O)c1cccc(O)c1` (stereo not given), the pIC50 in test [1] (Homo sapiens, HCT-8, 72 h) was under 4.40; in the test on MDA-MB-435 (Homo sapiens, MDA-MB-435, 72 h), under 4.40; in test [2] (Homo sapiens, HL-60, 72 h), under 4.40; in test [3] (Homo sapiens, SF-295, 72 h) it was under 4.40.

Take `O=C1C(O)=C(C(NCCCCl)c2ccccn2)C(=O)c2ccccc21` (stereo not given): the negative-log IC50 (pIC50) in test [1] (Homo sapiens, HCT-8, 72 h) was under 4.40; in the test on MDA-MB-435 (Homo sapiens, MDA-MB-435, 72 h), under 4.40; in test [2] (Homo sapiens, HL-60, 72 h) it was under 4.40; in test [3] (Homo sapiens, SF-295, 72 h) it was under 4.40.

On to `CCCCCCCNC(C1=C(O)C(=O)c2ccccc2C1=O)c1ccc(Cl)cc1Cl` (stereo not given), for which the pIC50 in test [1] (Homo sapiens, HCT-8, 72 h) is under 4.40; in the test on MDA-MB-435 (Homo sapiens, MDA-MB-435, 72 h), under 4.40; in test [2] (Homo sapiens, HL-60, 72 h), 5.35; in test [3] (Homo sapiens, SF-295, 72 h), under 4.40.

With `CCCCCCCCCCNC(C1=C(O)C(=O)c2ccccc2C1=O)c1ccccn1` (stereo not given), the negative-log IC50 (pIC50) in test [1] (Homo sapiens, HCT-8, 72 h) is 5.77; in the test on MDA-MB-435 (Homo sapiens, MDA-MB-435, 72 h), 4.63; in test [2] (Homo sapiens, HL-60, 72 h), 5.42; in test [3] (Homo sapiens, SF-295, 72 h), 5.77.

For the compound `O=C1C(O)=C(C(NCc2ccco2)c2ccccc2O)C(=O)c2ccccc21` (stereo not given) [listing 1 of 2 here], the pIC50 in test [1] (hct-8) was 4.84; with MDA-MB-435 (mda-mb-435), 4.69; in test [2] (Homo sapiens, HL-60, 72 h), 5.96; in test [3] (sf-295) it was 4.63.

On to `CC(C)(C)OC(=O)NCCCNC(C1=C(O)C(=O)c2ccccc2C1=O)c1cccc(O)c1` (stereo not given), for which the pIC50 in test [1] (Homo sapiens, HCT-8, 72 h) is under 4.40; in the test on MDA-MB-435 (Homo sapiens, MDA-MB-435, 72 h), under 4.40; in test [2] (Homo sapiens, HL-60, 72 h), under 4.40; in test [3] (Homo sapiens, SF-295, 72 h), under 4.40.

As for `O=C1C(O)=C(C(Nc2ccccc2)c2ccccn2)C(=O)c2ccccc21` (stereo not given), the negative logarithm of the IC50 (pIC50) in test [1] (Homo sapiens, HCT-8, 72 h) is under 4.40; with MDA-MB-435 (Homo sapiens, MDA-MB-435, 72 h) it was under 4.40; in test [2] (Homo sapiens, HL-60, 72 h), under 4.40; in test [3] (Homo sapiens, SF-295, 72 h), under 4.40.

Consider `CC(C)(C)OC(=O)NCCNCC1=C(O)C(=O)c2ccccc2C1=O`, for which the negative logarithm of the IC50 (pIC50) in test [1] (Homo sapiens, HCT-8, 72 h) is under 4.40; in the test with MDA-MB-435 (Homo sapiens, MDA-MB-435, 72 h) it was under 4.40; in test [2] (Homo sapiens, HL-60, 72 h) it was under 4.40; in test [3] (Homo sapiens, SF-295, 72 h) it was under 4.40.

For `O=C1C(O)=C(C(NCc2ccco2)c2ccccc2O)C(=O)c2ccccc21` (stereo not given) [listing 2 of 2 here], the negative logarithm of the IC50 (pIC50) in test [1] (hct-8) was 5.52; in the test on MDA-MB-435 (mda-mb-435), 5.54; in test [2] (hl-60), 5.92; in test [3] (sf-295), 5.74.

Turning to `O=C1C(O)=C(C(NCCCCl)c2ccc(Cl)cc2Cl)C(=O)c2ccccc21` (stereo not given), the pIC50 in test [1] (Homo sapiens, HCT-8, 72 h) is under 4.40; in the test with MDA-MB-435 (Homo sapiens, MDA-MB-435, 72 h), under 4.40; in test [2] (Homo sapiens, HL-60, 72 h) it was under 4.40; in test [3] (Homo sapiens, SF-295, 72 h), under 4.40.

With `CCCCNC(C1=C(O)C(=O)c2ccccc2C1=O)c1cc(C)ccc1O` (stereo not given), the pIC50 is 4.77 in test [1] (hct-8), 4.58 in the test with MDA-MB-435 (mda-mb-435), 5.22 in test [2] (hl-60) and 4.53 in test [3] (sf-295).

With `COc1ccc(NC(C2=C(O)C(=O)c3ccccc3C2=O)c2ccccn2)cc1` (stereo not given), the pIC50 in test [1] (Homo sapiens, HCT-8, 72 h) was under 4.40; in the test with MDA-MB-435 (Homo sapiens, MDA-MB-435, 72 h), under 4.40; in test [2] (Homo sapiens, HL-60, 72 h) it was under 4.40; in test [3] (Homo sapiens, SF-295, 72 h), under 4.40.

Regarding `CC(C)(C)OC(=O)NCCCNCC1=C(O)C(=O)c2ccccc2C1=O`, the pIC50 in test [1] (Homo sapiens, HCT-8, 72 h) was under 4.40; in the test on MDA-MB-435 (Homo sapiens, MDA-MB-435, 72 h), under 4.40; in test [2] (Homo sapiens, HL-60, 72 h) it was under 4.40; in test [3] (Homo sapiens, SF-295, 72 h), under 4.40.

For the compound `CCCCCCCCCCNC(C1=C(O)C(=O)c2ccccc2C1=O)c1ccccc1O` (stereo not given), the pIC50 in test [1] (Homo sapiens, HCT-8, 72 h) is 4.49; in the test with MDA-MB-435 (Homo sapiens, MDA-MB-435, 72 h) it was 4.51; in test [2] (Homo sapiens, HL-60, 72 h), 4.91; in test [3] (Homo sapiens, SF-295, 72 h), 4.64.

Consider `O=C1C(O)=C(C(NCc2ccccc2)c2ccccn2)C(=O)c2ccccc21` (stereo not given), for which the negative logarithm of the IC50 (pIC50) in test [1] (Homo sapiens, HCT-8, 72 h) is 5.66; in the test on MDA-MB-435 (Homo sapiens, MDA-MB-435, 72 h), under 4.40; in test [2] (Homo sapiens, HL-60, 72 h), 5.32; in test [3] (Homo sapiens, SF-295, 72 h), 5.89.
